Laboratory results reported in US11534457B2, “Use of dextran sulfate” (priority 2017, dated 2022).

System: severe traumatic brain injury (sTBI)
Assay: sTBI in rats, brain gene expression arrays and pathway analysis (Example 9)
Type: in vivo, Male Wistar rats
Details: 2 days after TBI
Procedure: The experimental protocol used in this study was approved by the Ethical Committee of the Catholic University of Rome, according to international standards and guidelines for animal care. Male Wistar rats of 300-350 g body weight were fed with standard laboratory diet and water ad libitum in a controlled environment. As the anesthetic mixture, the animals received 35 mg/kg b.w. ketamine and 0.25 mg/kg body weight midazolam by i.p. injection. Severe traumatic brain injury (sTBI) was induced by dropping a 450 g weight from 2 m height on to the rat head that had been protected by a metal disk previously fixed on the skull, according to the “weight drop” impact acceleration model (Marmarou et al., A new model of diffuse brain injury in rats. Part I: Pathophysiology and biomechanics. J Neurosurg. 1994; 80: 291-300). […] At the end of each period of treatment, rats were anesthetized again and then immediately sacrificed.
LMW-DS (Tikomed AB) was provided at a stock concentration of 20 mg/ml and was kept in a temperature-monitored refrigerator at 4° C. LMW-DS aliquots were diluted to the appropriate dosing concentration in sterile saline prior to delivery of a single subcutaneous injection.
Three doses of LMW-DS were administered subcutaneously 30 minutes post-TBI. The animals were sacrificed at 2 days post-TBI. The animals were divided into the following subgroups:
Three doses of LMW-DS were administered subcutaneously 30 minutes post-TBI. The animals were sacrificed at 7 days post-TBI. The animals were divided into the following subgroups:
An in vivo craniectomy was performed on all animals during anesthesia. After carefully removing the rat's skull, the brain was exposed and removed with a surgical spatula and quickly dropped in RNALater and preserved at 4° C. for further processing.
RNA extraction and array processing was carried out by SourceBioscience. The arrays used were the Agilent Rat expression arrays.
Statistical analysis was carried out using the Metaboanalyst software package. Gene expression changes of 10% with a p<0.05 were regarded as significant.
Pathway analysis of the differentially regulated genes was carried out using the Ingenuity pathway analysis package. The analysis was performed with special reference to pathways and molecular processes and diseases associated with neurodegenerative disease, including dementia, Alzheimer's disease, ALS, TBI and stroke, and with scarring and fibrosis, including glaucoma and normal pressure hydrocephalus (NPH) after subarachnoid haemorrhage.

[1] = TBI + 5 mg/kg LMW-DS, relative to control

low molecular weight dextran sulfate [LMW-DS]
effect on canonical pathway Adrenomedullin Signaling pathway (TBI + 5 mg/kg LMW-DS): Inhibited | effect on canonical pathway NF-κ13 Signaling (TBI + 5 mg/kg LMW-DS): Inhibited | effect on canonical pathway Osteoarthritis Pathway (TBI + 5 mg/kg LMW-DS): Inhibited | effect on canonical pathway Role of NFAT in Cardiac Hypertrophy (TBI + 5 mg/kg LMW-DS): Inhibited | z score, Abdominal cancer (TBI + 5 mg/kg LMW-DS): −2.553 | z score, Abdominal carcinoma (TBI + 5 mg/kg LMW-DS): −2.631 | z score, Abdominal neoplasm (TBI + 5 mg/kg LMW-DS): −0.927 | z score, Apoptosis (TBI + 5 mg/kg LMW-DS): 0.601 | z score, Behavior (TBI + 5 mg/kg LMW-DS): −2.009 | z score, Carcinoma (TBI + 5 mg/kg LMW-DS): −2.071 | z score, Cell death (TBI + 5 mg/kg LMW-DS): 0.051 | z score, Cell death of antigen presenting cells (TBI + 5 mg/kg LMW-DS): −0.62 | z score, Cell death of immune cells (TBI + 5 mg/kg LMW-DS): −1 | z score, Cell death of tumor cell lines (TBI + 5 mg/kg LMW-DS): −1.947 | z score, Cell movement (TBI + 5 mg/kg LMW-DS): −3.723 | z score, Cell movement of tumor cell lines (TBI + 5 mg/kg LMW-DS): −2.078 | z score, Cell proliferation of leukocyte cell lines (TBI + 5 mg/kg LMW-DS): −2.754 | z score, Cellular homeostasis (TBI + 5 mg/kg LMW-DS): −3.19 | z score, Chemotaxis (TBI + 5 mg/kg LMW-DS): −3.642 | z score, Development of vasculature (TBI + 5 mg/kg LMW-DS): −1.534 | z score, Digestive organ tumor (TBI + 5 mg/kg LMW-DS): −1.149 | z score, Digestive system cancer (TBI + 5 mg/kg LMW-DS): −2.221 | z score, Edema (TBI + 5 mg/kg LMW-DS): 3.386 | z score, Epithelial neoplasm (TBI + 5 mg/kg LMW-DS): −1.393 | z score, Extracranial solid tumor (TBI + 5 mg/kg LMW-DS): −0.992 | z score, Feeding (TBI + 5 mg/kg LMW-DS): −0.895 | z score, Growth of tumor (TBI + 5 mg/kg LMW-DS): −1.233 | z score, Hematologic cancer (TBI + 5 mg/kg LMW-DS): −1.067 | z score, Incidence of tumor (TBI + 5 mg/kg LMW-DS): −0.731 | z score, Leukocyte migration (TBI + 5 mg/kg LMW-DS): −2.163 | z score, Leukopoiesis (TBI + 5 mg/kg LMW-DS): −3.549 | z score, Lymphocyte homeostasis (TBI + 5 mg/kg LMW-DS): −2.94 | z score, Lymphocytic cancer (TBI + 5 mg/kg LMW-DS): −0.48 | z score, Lymphocytic neoplasm (TBI + 5 mg/kg LMW-DS): −0.48 | z score, Lymphopoiesis (TBI + 5 mg/kg LMW-DS): −3.105 | z score, Lymphoproliferative disorder (TBI + 5 mg/kg LMW-DS): −0.48 | z score, Malignant solid tumor (TBI + 5 mg/kg LMW-DS): −1.492 | z score, Metabolism of hormone (TBI + 5 mg/kg LMW-DS): −1.632 | z score, Migration of cells (TBI + 5 mg/kg LMW-DS): −3.087 | z score, Necrosis (TBI + 5 mg/kg LMW-DS): −1.503 | z score, Neoplasia of leukocytes (TBI + 5 mg/kg LMW-DS): −0.48 | z score, Non-melanoma solid tumor (TBI + 5 mg/kg LMW-DS): −1.249 | z score, Proliferation of hematopoietic progenitor cells (TBI + 5 mg/kg LMW-DS): −2.951 | z score, Quantity of cells (TBI + 5 mg/kg LMW-DS): −3.092 | z score, Quantity of epithelial tissue (TBI + 5 mg/kg LMW-DS): −0.028 | z score, Quantity of neuroglia (TBI + 5 mg/kg LMW-DS): −1.446 | z score, Resorption of bone (TBI + 5 mg/kg LMW-DS): −0.478 | z score, Secretion of molecule (TBI + 5 mg/kg LMW-DS): 1.634 | z score, Synthesis of hormone (TBI + 5 mg/kg LMW-DS): −1.632 | z score, Transport of molecule (TBI + 5 mg/kg LMW-DS): 0.248 | z score, Vasculogenesis (TBI + 5 mg/kg LMW-DS): −2.274 | z score, canonical pathway Adrenomedullin Signaling pathway [1]: −2.236 | z score, canonical pathway NF-κb Signaling [1]: −2 | z score, canonical pathway Osteoarthritis Pathway [1]: −2.646 | z score, canonical pathway Role of NFAT in Cardiac Hypertrophy [1]: −1.63 | z score, Apoptosis (TBI + 15 mg/kg LMW-DS): −0.502 | z score, Apoptosis of tumor cell lines (TBI + 15 mg/kg LMW-DS): 0.09 | z score, Behavior (TBI + 15 mg/kg LMW-DS): −0.139 | z score, Cell death (TBI + 15 mg/kg LMW-DS): −0.141 | z score, Necrosis (TBI + 15 mg/kg LMW-DS): −0.477 | z score, Quantity of blood cells (TBI + 15 mg/kg LMW-DS): −0.34 | z score, Quantity of cells (TBI + 15 mg/kg LMW-DS): −0.797 | z score, Quantity of lymphocytes (TBI + 15 mg/kg LMW-DS): −0.943 | Diseases or functions annotation: Abdominal cancer (TBI + 1 mg/kg LMW-DS): Inhibited | Diseases or functions annotation: Abdominal carcinoma (TBI + 1 mg/kg LMW-DS): Inhibited | Diseases or functions annotation: Abdominal neoplasm (TBI + 1 mg/kg LMW-DS): Inhibited | Diseases or functions annotation: Activation of blood cells (TBI + 1 mg/kg LMW-DS): Activated | Diseases or functions annotation: Activation of cells (TBI + 1 mg/kg LMW-DS): Activated | Diseases or functions annotation: Activation of leukocytes (TBI + 1 mg/kg LMW-DS): Activated | Diseases or functions annotation: Activation of lymphocytes (TBI + 1 mg/kg LMW-DS): Inhibited | Diseases or functions annotation: Adhesion of tumor cell lines (TBI + 1 mg/kg LMW-DS): Activated | Diseases or functions annotation: Apoptosis (TBI + 1 mg/kg LMW-DS): Inhibited | Diseases or functions annotation: Apoptosis of muscle cells (TBI + 1 mg/kg LMW-DS): Activated | Diseases or functions annotation: Behavior (TBI + 1 mg/kg LMW-DS): Activated | Diseases or functions annotation: Binding of tumor cell lines (TBI + 1 mg/kg LMW-DS): Activated | Diseases or functions annotation: Carcinoma (TBI + 1 mg/kg LMW-DS): Inhibited | Diseases or functions annotation: Cell death (TBI + 1 mg/kg LMW-DS): Inhibited | Diseases or functions annotation: Cell death of blood cells (TBI + 1 mg/kg LMW-DS): Activated | Diseases or functions annotation: Cell death of immune cells (TBI + 1 mg/kg LMW-DS): Activated | Diseases or functions annotation: Cell movement (TBI + 1 mg/kg LMW-DS): Activated | Diseases or functions annotation: Cell movement of muscle cells (TBI + 1 mg/kg LMW-DS): Inhibited | Diseases or functions annotation: Cell movement of vascular smooth muscle cells (TBI + 1 mg/kg LMW-DS): Inhibited | Diseases or functions annotation: Cell proliferation of T lymphocytes (TBI + 1 mg/kg LMW-DS): Inhibited | Diseases or functions annotation: Cellular homeostasis (TBI + 1 mg/kg LMW-DS): Activated | Diseases or functions annotation: Development of connective tissue cells (TBI + 1 mg/kg LMW-DS): Inhibited | Diseases or functions annotation: Differentiation of bone cells (TBI + 1 mg/kg LMW-DS): Inhibited | Diseases or functions annotation: Differentiation of connective tissue cells (TBI + 1 mg/kg LMW-DS): Activated | Diseases or functions annotation: Differentiation of hematopoietic progenitor cells (TBI + 1 mg/kg LMW-DS): Activated | Diseases or functions annotation: Differentiation of osteoclasts (TBI + 1 mg/kg LMW-DS): Inhibited | Diseases or functions annotation: Digestive organ tumor (TBI + 1 mg/kg LMW-DS): Inhibited | Diseases or functions annotation: Experimentally-induced arthritis (TBI + 1 mg/kg LMW-DS): Inhibited | Diseases or functions annotation: Extracranial solid tumor (TBI + 1 mg/kg LMW-DS): Activated | Diseases or functions annotation: Genital tumor (TBI + 1 mg/kg LMW-DS): Activated | Diseases or functions annotation: Incidence of tumor (TBI + 1 mg/kg LMW-DS): Inhibited | Diseases or functions annotation: Inflammation of absolute anatomical region (TBI + 1 mg/kg LMW-DS): Inhibited | Diseases or functions annotation: Inflammation of body cavity (TBI + 1 mg/kg LMW-DS): Inhibited | Diseases or functions annotation: Inflammation of joint (TBI + 1 mg/kg LMW-DS): Inhibited | Diseases or functions annotation: Inflammation of organ (TBI + 1 mg/kg LMW-DS): Inhibited | Diseases or functions annotation: Inflammatory response (TBI + 1 mg/kg LMW-DS): Activated | Diseases or functions annotation: Interaction of mononuclear leukocytes (TBI + 1 mg/kg LMW-DS): Activated | Diseases or functions annotation: Leukocyte migration (TBI + 1 mg/kg LMW-DS): Activated | Diseases or functions annotation: Leukopoiesis (TBI + 1 mg/kg LMW-DS): Activated | Diseases or functions annotation: Lymphopoiesis (TBI + 1 mg/kg LMW-DS): Activated | Diseases or functions annotation: Malignant solid tumor (TBI + 1 mg/kg LMW-DS): Inhibited
